In ChEMBL document CHEMBL1137026, “Design and synthesis of novel Cdc25A-inhibitors having phosphate group as a hydrophilic residue” (Bioorg Med Chem Lett, 2004):

Columns and labels:
[1] = target: T1, M-phase inducer phosphatase 2 (Homo sapiens, UniProt P30305); assay: Inhibitory concentration against dual-specificity phosphatase Cell division cycle (Cdc) 25B
T1 sequence (P30305 whole entry): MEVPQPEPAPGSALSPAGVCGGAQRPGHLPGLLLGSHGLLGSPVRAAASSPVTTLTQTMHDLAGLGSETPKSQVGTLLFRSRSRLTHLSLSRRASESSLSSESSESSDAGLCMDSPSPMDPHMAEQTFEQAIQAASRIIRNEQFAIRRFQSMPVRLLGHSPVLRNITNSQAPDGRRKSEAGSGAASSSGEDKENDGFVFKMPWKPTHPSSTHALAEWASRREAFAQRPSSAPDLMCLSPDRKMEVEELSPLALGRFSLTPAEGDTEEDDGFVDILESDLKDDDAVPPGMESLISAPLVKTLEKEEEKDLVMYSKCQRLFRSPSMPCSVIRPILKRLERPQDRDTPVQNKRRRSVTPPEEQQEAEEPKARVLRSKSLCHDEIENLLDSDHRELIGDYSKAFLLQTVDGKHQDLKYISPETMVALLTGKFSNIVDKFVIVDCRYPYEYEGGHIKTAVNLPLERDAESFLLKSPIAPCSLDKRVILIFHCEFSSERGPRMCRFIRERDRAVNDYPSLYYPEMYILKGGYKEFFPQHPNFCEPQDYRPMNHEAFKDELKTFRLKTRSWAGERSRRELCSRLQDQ

[2] = target: T2, M-phase inducer phosphatase 1 (Homo sapiens, UniProt P30304); assay: Inhibitory concentration against dual-specificity phosphatase Cell division cycle (Cdc) 25A
T2 sequence (P30304 whole entry): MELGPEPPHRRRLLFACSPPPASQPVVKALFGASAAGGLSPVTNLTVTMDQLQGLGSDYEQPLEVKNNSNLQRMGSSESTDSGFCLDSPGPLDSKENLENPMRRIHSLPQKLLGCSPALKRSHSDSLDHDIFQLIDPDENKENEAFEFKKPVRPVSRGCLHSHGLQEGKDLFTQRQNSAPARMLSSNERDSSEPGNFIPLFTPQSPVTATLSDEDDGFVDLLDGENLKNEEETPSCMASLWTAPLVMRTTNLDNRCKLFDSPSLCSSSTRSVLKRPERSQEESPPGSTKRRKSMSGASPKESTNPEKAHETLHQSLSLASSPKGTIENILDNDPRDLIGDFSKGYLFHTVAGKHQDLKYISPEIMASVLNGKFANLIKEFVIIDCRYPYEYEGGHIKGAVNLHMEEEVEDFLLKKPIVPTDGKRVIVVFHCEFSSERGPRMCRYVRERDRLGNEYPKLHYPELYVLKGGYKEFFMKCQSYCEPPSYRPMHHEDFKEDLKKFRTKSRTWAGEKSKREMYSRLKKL

Row | SMILES | IC50 [1] [µM] | IC50 [2] [µM]
1 | CC(C)CCC[C@@H](C)[C@H]1CCC2[C@@](C)(CCOP(=O)(O)O)CCC[C@@]21C (some centres not stated) | 6.8 | 24.5
2 | CC(C)CCC[C@@H](C)[C@H]1CCC2[C@@](C)(CCO)CCC[C@@]21C (some centres not stated) | 1.3 | 6.9
3 | CC(C)CCC[C@@H](C)[C@H]1CCC2[C@](C)(CCO)CCC[C@@]21C (some centres not stated) | 1.7 | 5.5
4 | CC(C)CCC[C@@H](C)[C@H]1CCC2[C@](C)(CCOP(=O)(O)O)CCC[C@@]21C (some centres not stated) | 1.2 | 5.5
5 | CC(C)CCC[C@@H](C)[C@H]1CCC2[C@@](C)(COP(=O)(O)O)CCC[C@@]21C (some centres not stated) | 3.7 | 0.7
6 | CC(C)CCC[C@@H](C)[C@H]1CCC2/C(=C/C(=O)O)CCC[C@@]21C (some centres not stated) | 5.9 | 17.2
7 | CC(C)CCC[C@@H](C)[C@H]1CCC2C(C)(COP(=O)(O)O)CCC[C@@]21C (single isomer, unassigned) | 3 | 0.9

Results, then the molecule that gave them:

Row | IC50 [1] [µM] | IC50 [2] [µM] | SMILES
8 | 4.5 | 22.7 | CC(C)CCC[C@@H](C)[C@H]1CCC2[C@@](C)(CO)CCC[C@@]21C (some centres not stated)
9 | 5.8 | 3.9 | CC(C)CCC[C@@H](C)[C@H]1CCC2[C@@H](O)CCC[C@@]21C (some centres not stated)
10 | 3.3 | 8.5 | CC(C)CCC[C@@H](C)[C@H]1CCC2[C@](C)(CO)CCC[C@@]21C (some centres not stated)
11 | 5 | 8.2 | CC(C)CCC[C@@H](C)[C@H]1CCC2[C@@H](OP(=O)(O)O)CCC[C@@]21C (some centres not stated)
